target: DNA-dependent protein kinase catalytic subunit (Homo sapiens, UniProt P78527); test: DNA-PK Enzyme Inhibitory Assay
Experimental: The assays of DNA-PK were performed by Reaction Biology Corporation, One Great Valley Parkway, Suite 2 Malvern, PA 19355 USA. All Compounds were dissolved in DMSO (negative control solvent) and tested for their ability to inhibit human DNA-PK enzyme activity. All synthesized compounds were tested in a 10-dose IC50 profile with 4-fold serial dilutions starting at concentration 100 μM. The control compound, LY294002 was tested in a 10-dose IC50 profile with 3-fold serial dilutions starting at 10 μM concentration. Reactions were carried out using 20 μM peptide substrate [EPPLSQEAFADLWKK], 10 μg/ml DNA and 10 μM ATP using the HTRF assay format.

Sequence of DNA-dependent protein kinase catalytic subunit (P78527 whole entry): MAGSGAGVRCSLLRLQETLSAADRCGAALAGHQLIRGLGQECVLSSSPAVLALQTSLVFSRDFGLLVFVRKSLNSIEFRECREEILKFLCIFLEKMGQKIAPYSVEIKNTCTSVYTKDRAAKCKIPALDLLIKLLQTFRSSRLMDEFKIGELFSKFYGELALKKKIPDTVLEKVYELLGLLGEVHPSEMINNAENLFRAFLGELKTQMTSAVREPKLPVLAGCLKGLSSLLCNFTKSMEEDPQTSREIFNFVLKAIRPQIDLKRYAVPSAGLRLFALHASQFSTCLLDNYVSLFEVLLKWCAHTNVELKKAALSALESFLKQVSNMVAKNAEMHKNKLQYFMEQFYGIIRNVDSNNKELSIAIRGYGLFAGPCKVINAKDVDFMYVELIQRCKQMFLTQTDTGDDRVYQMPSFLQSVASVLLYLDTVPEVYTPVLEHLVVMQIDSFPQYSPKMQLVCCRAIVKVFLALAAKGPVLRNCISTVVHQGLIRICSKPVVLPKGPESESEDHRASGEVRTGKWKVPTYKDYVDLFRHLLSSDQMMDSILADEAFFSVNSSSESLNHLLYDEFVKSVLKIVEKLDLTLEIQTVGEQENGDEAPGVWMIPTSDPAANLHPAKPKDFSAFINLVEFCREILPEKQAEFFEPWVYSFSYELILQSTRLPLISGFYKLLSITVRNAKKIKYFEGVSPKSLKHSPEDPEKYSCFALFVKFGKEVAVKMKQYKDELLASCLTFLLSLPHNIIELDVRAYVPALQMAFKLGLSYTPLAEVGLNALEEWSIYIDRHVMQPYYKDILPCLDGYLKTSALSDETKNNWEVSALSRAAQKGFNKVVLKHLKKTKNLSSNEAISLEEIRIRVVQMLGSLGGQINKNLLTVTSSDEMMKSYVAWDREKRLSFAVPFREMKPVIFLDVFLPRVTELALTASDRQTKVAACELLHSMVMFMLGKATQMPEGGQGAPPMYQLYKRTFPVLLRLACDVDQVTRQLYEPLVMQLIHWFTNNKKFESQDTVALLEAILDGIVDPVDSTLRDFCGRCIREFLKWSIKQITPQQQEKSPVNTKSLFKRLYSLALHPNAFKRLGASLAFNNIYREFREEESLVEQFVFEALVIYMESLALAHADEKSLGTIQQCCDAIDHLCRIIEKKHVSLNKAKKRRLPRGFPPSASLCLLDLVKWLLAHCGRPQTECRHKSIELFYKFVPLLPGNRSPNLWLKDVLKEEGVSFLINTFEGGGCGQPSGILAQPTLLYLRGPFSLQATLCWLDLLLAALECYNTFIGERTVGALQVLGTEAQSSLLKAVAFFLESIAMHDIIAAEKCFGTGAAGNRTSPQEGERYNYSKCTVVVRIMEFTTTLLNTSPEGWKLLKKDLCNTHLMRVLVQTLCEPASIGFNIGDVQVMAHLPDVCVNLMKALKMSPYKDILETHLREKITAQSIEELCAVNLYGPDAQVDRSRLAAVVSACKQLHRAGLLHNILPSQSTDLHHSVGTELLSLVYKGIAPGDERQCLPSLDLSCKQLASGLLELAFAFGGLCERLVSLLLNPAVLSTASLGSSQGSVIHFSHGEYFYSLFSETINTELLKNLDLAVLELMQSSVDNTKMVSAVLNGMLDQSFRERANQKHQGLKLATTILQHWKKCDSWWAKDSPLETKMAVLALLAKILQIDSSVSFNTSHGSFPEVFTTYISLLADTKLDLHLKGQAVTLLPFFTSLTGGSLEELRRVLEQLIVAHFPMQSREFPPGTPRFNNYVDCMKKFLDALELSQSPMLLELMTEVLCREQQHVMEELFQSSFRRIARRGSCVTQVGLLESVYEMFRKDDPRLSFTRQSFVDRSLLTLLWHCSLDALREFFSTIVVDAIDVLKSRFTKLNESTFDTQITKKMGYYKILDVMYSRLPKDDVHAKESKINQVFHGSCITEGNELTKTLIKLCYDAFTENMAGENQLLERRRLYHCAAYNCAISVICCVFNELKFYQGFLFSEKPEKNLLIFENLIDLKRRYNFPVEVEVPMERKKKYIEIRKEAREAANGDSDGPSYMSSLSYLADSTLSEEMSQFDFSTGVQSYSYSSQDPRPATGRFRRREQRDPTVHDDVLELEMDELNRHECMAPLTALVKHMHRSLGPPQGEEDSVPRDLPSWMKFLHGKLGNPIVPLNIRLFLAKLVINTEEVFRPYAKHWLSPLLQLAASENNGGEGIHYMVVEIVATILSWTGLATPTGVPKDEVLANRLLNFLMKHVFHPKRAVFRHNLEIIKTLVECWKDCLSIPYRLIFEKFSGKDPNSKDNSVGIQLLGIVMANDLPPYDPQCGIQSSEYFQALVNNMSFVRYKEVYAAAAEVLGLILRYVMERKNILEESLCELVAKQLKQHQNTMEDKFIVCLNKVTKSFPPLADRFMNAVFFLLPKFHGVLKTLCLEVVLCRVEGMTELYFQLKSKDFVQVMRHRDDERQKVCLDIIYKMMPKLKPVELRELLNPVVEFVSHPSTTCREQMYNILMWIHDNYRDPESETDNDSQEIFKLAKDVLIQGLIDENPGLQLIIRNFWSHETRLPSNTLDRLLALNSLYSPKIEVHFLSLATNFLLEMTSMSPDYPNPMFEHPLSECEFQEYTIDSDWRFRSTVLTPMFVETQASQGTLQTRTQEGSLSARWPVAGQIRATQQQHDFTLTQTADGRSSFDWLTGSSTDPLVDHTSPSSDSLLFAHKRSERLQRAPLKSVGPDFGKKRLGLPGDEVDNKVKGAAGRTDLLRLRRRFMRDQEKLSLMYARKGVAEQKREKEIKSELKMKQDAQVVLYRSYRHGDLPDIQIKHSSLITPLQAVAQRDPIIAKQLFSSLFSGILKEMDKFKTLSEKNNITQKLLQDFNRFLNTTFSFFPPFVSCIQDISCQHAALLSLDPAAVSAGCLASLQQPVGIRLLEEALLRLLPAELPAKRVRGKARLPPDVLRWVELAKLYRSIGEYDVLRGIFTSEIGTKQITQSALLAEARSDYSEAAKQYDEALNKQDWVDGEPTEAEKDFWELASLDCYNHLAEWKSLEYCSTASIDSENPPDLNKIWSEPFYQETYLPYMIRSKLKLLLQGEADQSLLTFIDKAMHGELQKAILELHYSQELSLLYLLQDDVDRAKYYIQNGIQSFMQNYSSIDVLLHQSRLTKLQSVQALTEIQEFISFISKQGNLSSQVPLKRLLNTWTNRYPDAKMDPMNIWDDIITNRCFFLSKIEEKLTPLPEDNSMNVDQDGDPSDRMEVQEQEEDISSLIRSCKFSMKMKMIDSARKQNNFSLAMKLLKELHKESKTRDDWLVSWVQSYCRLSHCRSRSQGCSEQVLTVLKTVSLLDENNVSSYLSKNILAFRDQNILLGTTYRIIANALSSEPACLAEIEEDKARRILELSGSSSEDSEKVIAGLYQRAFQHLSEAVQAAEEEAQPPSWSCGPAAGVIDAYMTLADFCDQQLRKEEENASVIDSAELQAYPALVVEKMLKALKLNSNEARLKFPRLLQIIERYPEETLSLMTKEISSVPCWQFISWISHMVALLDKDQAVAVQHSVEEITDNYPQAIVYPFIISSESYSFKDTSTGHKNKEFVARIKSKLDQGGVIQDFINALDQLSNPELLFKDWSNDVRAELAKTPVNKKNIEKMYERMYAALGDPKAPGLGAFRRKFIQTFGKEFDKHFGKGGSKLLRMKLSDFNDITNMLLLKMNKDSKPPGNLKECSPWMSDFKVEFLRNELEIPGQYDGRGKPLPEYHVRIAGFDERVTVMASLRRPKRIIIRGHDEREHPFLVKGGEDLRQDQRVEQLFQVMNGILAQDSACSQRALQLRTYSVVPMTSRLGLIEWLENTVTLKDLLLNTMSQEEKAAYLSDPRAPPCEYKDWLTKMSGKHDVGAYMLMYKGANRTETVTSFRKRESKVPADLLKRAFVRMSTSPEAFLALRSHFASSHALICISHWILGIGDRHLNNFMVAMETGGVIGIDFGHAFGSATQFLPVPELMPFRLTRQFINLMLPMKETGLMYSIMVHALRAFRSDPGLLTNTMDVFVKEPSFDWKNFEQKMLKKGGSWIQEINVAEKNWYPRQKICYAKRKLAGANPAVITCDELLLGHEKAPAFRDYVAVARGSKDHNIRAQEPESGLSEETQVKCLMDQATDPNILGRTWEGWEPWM

For `Cc1c(OCC(=O)Nc2ccc(S(=O)(=O)Nc3ccccn3)cc2)ccc2c(=O)nc(N3CCOCC3)oc12` [2-((8-Methyl-2-morpholino-4-oxo-4H-benzo[e][1,3]oxazin-7-yl)oxy)-N-(4-(N-(pyridin-2-yl)sulfamoyl)phenyl)acetamide (7c)], which IC50 is on record?
The IC50 was 0.25 µM.

With `Cc1c(OCC(=O)Nc2ccc(S(=O)(=O)Nc3nccs3)cc2)ccc2c(=O)nc(N3CCOCC3)oc12` [2-((8-Methyl-2-morpholino-4-oxo-4H-benzo[e][1,3]oxazin-7-yl)oxy)-N-(4-(N-(thiazol-2-yl)sulfamoyl)phenyl)acetamide (7d)] as the compound, how does the IC50 read?
The IC50 was 3.5 µM.

Which IC50 does the source give for `Cc1ccc(CNC(=O)COc2ccc3c(=O)nc(N4CCOCC4)oc3c2C)cc1` [2-((8-Methyl-2-morpholino-4-oxo-4H-benzo[e][1,3]oxazin-7-yl)oxy)-N-(4-methylbenzyl)acetamide (9c)] here?
The IC50 was 20 µM.

`Cc1c(OCC(=O)Nc2ccc(S(N)(=O)=O)cc2)ccc2c(=O)nc(N3CCOCC3)oc12` [2-((8-Methyl-2-morpholino-4-oxo-4H-benzo[e][1,3]oxazin-7-yl)oxy)-N-(4-sulfamoylphenyl)acetamide (7a)] was tested. Which IC50 did it give?
Its IC50 is 40 µM.

For `CCC(C)C(NC(=O)COc1ccc2c(=O)nc(N3CCOCC3)oc2c1C)C(=O)O` (stereo not given) [3-Methyl-2-(2-((8-methyl-2-morpholino-4-oxo-4H-benzo[e][1,3]oxazin-7-yl)oxy)acetamido)pentanoic acid (11b)], which IC50 is on record?
Its IC50 is 80 µM.

With `Cc1c(OCC(=O)N[C@@H](C)C(=O)O)ccc2c(=O)nc(N3CCOCC3)oc12` [(2-((8-Methyl-2-morpholino-4-oxo-4H-benzo[e][1,3]oxazin-7-yl)oxy)acetyl)alanine (11a)] as the compound, how does the IC50 read?
Its IC50 is 100 µM.

`Cc1c(OCC(=O)N[C@@H](Cc2ccccc2)C(=O)O)ccc2c(=O)nc(N3CCOCC3)oc12` [(2-((8-Methyl-2-morpholino-4-oxo-4H-benzo[e][1,3]oxazin-7yl)oxy)acetyl)phenylalanine (11c)] was tested. Which IC50 did it give?
Its IC50 is 35 µM.

With `Cc1noc(NS(=O)(=O)c2ccc(NC(=O)COc3ccc4c(=O)nc(N5CCOCC5)oc4c3C)cc2)c1C` [N-(4-(N-(3,4-dimethylisoxazol-5-yl)sulfamoyl)phenyl)-2-((8-methyl-2-morpholino-4-oxo-4H-benzo[e][1,3]oxazin-7-yl)oxy)acetamide (7f)] as the compound, how does the IC50 read?
The IC50 was 5 µM.

Which IC50 does the source give for `CC(=O)NS(=O)(=O)c1ccc(NC(=O)COc2ccc3c(=O)nc(N4CCOCC4)oc3c2C)cc1` [N-(4-(N-acetylsulfamoyl)phenyl)-2-((8-methyl-2-morpholino-4-oxo-4H-benzo[e][1,3]oxazin-7-yl)oxy)acetamide (7b)] here?
Its IC50 is 35 µM.

`Cc1c(OCC(=O)Nc2ccc(S(=O)(=O)NC(=N)N)cc2)ccc2c(=O)nc(N3CCOCC3)oc12` [N-(4-(N-carbamimidoylsulfamoyl)phenyl)-2-((8-methyl-2-morpholino-4-oxo-4H-benzo[e][1,3]oxazin-7-yl)oxy)acetamide (7e)] was tested. Which IC50 did it give?
The IC50 was 25 µM.

With `Cc1c(OCC(=O)NCc2ccc(Cl)cc2)ccc2c(=O)nc(N3CCOCC3)oc12` [N-(4-chlorobenzyl)-2-((8-methyl-2-morpholino-4-oxo-4Hbenzo[e][1,3]oxazin-7-yl)oxy)acetamide (9d)] as the compound, how does the IC50 read?
The IC50 was 10 µM.

`Cc1c(OCC(=O)NCc2ccc(F)cc2)ccc2c(=O)nc(N3CCOCC3)oc12` [N-(4-fluorobenzyl)-2-((8-methyl-2-morpholino-4-oxo-4Hbenzo[e][1,3]oxazin-7-yl)oxy)acetamide (9e)] was tested. Which IC50 did it give?
Its IC50 is 4 µM.

With `Cc1c(OCC(=O)NCc2ccc(O)cc2)ccc2c(=O)nc(N3CCOCC3)oc12` [N-(4-hydroxybenzyl)-2-((8-methyl-2-morpholino-4-oxo-4Hbenzo[e][1,3]oxazin-7-yl)oxy)acetamide (9f)] as the compound, how does the IC50 read?
Its IC50 is 2.5 µM.

For `COc1ccc(CNC(=O)COc2ccc3c(=O)nc(N4CCOCC4)oc3c2C)cc1` [N-(4-methoxybenzyl)-2-((8-methyl-2-morpholino-4-oxo-4Hbenzo[e][1,3]oxazin-7-yl)oxy)acetamide (9b)], which IC50 is on record?
Its IC50 is 15 µM.

Which IC50 does the source give for `Cc1c(OCC(=O)NCc2ccccc2)ccc2c(=O)nc(N3CCOCC3)oc12` [N-benzyl-2-((8-methyl-2-morpholino-4-oxo-4H-benzo[e][1,3]oxazin-7-yl)oxy)acetamide (9a)] here?
The IC50 was greater than 100 µM.

Source: BindingDB's records for doi:10.7270/Q2930S2V (Taibah University, 2017)
